From patent US20100254965A1, “Adenosine Signaling in Diagnosis, Treatment, and Prevention of Priapism and Erectile Dysfunction” (BOARD OF REGENTS ,THE UNIVERSITY OF TEXAS SYSTEM, priority 2006, published 2010) come the findings set out here.

Structures are written as SMILES.

Assay [1] relates to corpus cavernosal smooth muscle cells (CCSM). Nature of the assay: cAMP production in primary corpus cavernosal / penile vascular smooth muscle cells (CCSM, PVSM). The assay is classed as cell-based, mouse. The settings on record: 10 min; for adenosine-mediated cAMP induction was blocked: CCSM, MRS1706 10 μM, ZM241385 50 nM. How it is done:
PVSM were isolated and cultured from mouse penes. The cells were be switched to serum-free medium and treated with different concentrations of adenosine with or without A2B antagonist (MRS1706-1 μM) or A2A agonist (CGS-21680-1 μM) alone for 10 min. Then cellular extracts were collected and cAMP levels were measured using an ELISA kit. The data represent mean±SE.
Data are presented as mean±SE. *, p<0.01.
FIG. 18. Adenosine stimulated both cAMP and cGMP induction in corpus cavernosal smooth muscle cells (CCSM) via A2BR activation. (a) Adenosine receptor expression profile in purified primary CCSM. CCSM were purified from adult mouse penes. […] (b) CCSM were isolated and cultured from mouse penes. The cells were switched to serum-free medium and treated with different concentrations of adenosine with or without A2BR antagonist (MRS1706-10 μM), A2AR antagonist (ZM241385-50 nM) or A2AR agonist (CGS-21680-10 μM) alone for 10 min. Then cellular extracts were collected and cAMP levels were measured using an ELISA kit. The data represent mean±SE. *p<0.05, adenosine treated versus the untreated; **p<0.05, adenosine plus MRS1706 or ZM241385 versus the adenosine treated. (c) CCSM were isolated from penes of the wild type and A2BR-deficient mice and cultured with or without adenosine (100 μM), NECA (10 μM), a potent adenosine receptor agonist, forskolin (10 μM), an adenylyl cyclase agonist. After 10 min treatment, the cellular extracts were collected and cAMP levels were measured by using a commercial enzyme immunoassay kit (Amersham Pharmacia). N=4. *p<0.05, adenosine, forskolin and NECA treated versus the untreated control. (d) Corpus cavernosal strips (CCS) were isolated from wild type and A2BR-deficient mice and treated with different concentrations of adenosine in the presence or absence of L-NAME (100 μM) or MRS1706 (10 μM). 10 min after treatment, cellular extracts were collected and cGMP levels were measured by using a commercial enzyme immunoassay kit (Amersham Pharmacia). Data are expressed as mean±SE. *p<0.05, adenosine treated versus the control; **p<0.05, adenosine treated with MRS1706 versus the adenosine treated; ***p<0.05, CCS of A2BR-deficient mice treated with adenosine versus the CCS of wild type mice treated with adenosine. N=6-7. (e) CCSM were isolated from wild type and A2BR deficient mice and cultured with or without adenosine (100 μM), NECA (10 μM), a potent adenosine receptor agonist, forskolin (10 μM), an adenylyl cyclase agonist, or diethylamine-NONOate (DEA/NO) (10 μM). After 10 min treatment, the cellular extracts were collected and cAMP levels were measured by using a commercial enzyme immunoassay kit (Amersham Pharmacia). N=4. *p<0.05, DEA/NO treated versus to the untreated control. (f) Both cAMP and cGMP induction contribute to adenosine-mediated decreased PE-induced phosphorylation of myosin light chain (MLC). CCSM and CCS were isolated and cultured with the treatment of phenylephrine (PE-10 μM) in the presence or absence of adenosine (100 μM) or L-NAME (100 μM). 10 min after treatment, cellular extracts were isolated and western blot analysis were performed. The total MLC and phosphorylated MLC at S20 were detected by specific antibodies.
Isolation of primary corpus cavernosal smooth muscle cells (CCSM). Corpus cavernosum tissues were dissected as described above. Cavernosal tissue was washed in PBS and minced into […] pieces. Segments were incubated in 5-10 ml enzyme solutions containing 0.02% collagenase A (0.272 U/mg protein, Roche, Mannheim, Germany) and 0.5% elastase (3.73 U/mg protein, Cell system, St Katharinen, Germany) in a 75 mm flask at 37° C. for 6 hours. Enzymatic digestion was terminated by adding 10 ml DMEM supplemented with 10% fetal calf serum (FCS). […]

Assay [2] deals with corpus cavernosal strips (CCS). Nature of the assay: EFS-induced cGMP in CCS of ADA+ and ADA-/- mice. In kind it is cell-based, mouse. To be noted: EFS 5V 30 Hz, MRS1706 (10 nM), ZM241385 (50 nM), L-NAME (100 μM). How it is done: FIG. 19. EFS leads to increased cAMP and cGMP production via A2BR in ADA-deficient mice. (a-b) Corpus cavernosal strips (CCS) of the ADA−/− and ADA+ mice were isolated and treated with 10 μM phenylephrine (PE) to induce precontraction. Then CCS were treated with MRS1706 (10 nM), ZM241385 (50 nM) or L-NAME (100 μM) prior to electrical field stimulation (EFS) at 5V and 30 Hz. 60 second after nerve stimulation, the CCS were quickly frozen and cellular cAMP (a) and cGMP (b) were measured by using commercial enzyme immunoassay kit (Amersham Pharmacia). N=4. Data are expressed as mean±SE. *p<0.05, ADA deficient mice versus the control; **p<0.05, CCS of ADA-deficient mice with MRS1706 and/or L-NAME treatment versus CCS of ADA-deficient mice without treatment; ***p<0.05, CCS of the control mice with MRS1706 and/or L-NAME treatment versus CCS of the control mice without treatment.
Function experiments. […] The contractility of each isolated corpus cavernosum smooth muscle cells (CCSM) strip was measured using an isometric force transducer (AD Instrument Inc., Georgia, Vt., USA). […] The contractile responses of the strips were analysed by adding 10 μM phenylephrine to the bath, and force changes were recorded in response to drug application and to electrical field stimulation. […]

Regarding `CCCn1c(=O)c2[nH]c(-c3ccc(OCC(=O)Nc4ccc(C(C)=O)cc4)cc3)nc2n(CCC)c1=O` [MRS1706], the “adenosine-mediated cAMP induction was blocked” value in assay [1] is on record as “blocked”. The “EFS-increased levels of cGMP were inhibited” value in assay [2] is reported as “significantly inhibited”.

Take `Nc1nc(NCCc2ccc(O)cc2)nc2nc(-c3ccco3)nn12` [ZM241385]: the “adenosine-mediated cAMP induction was blocked” value in assay [1] is recorded as “not”. In assay [2], the “EFS-increased levels of cGMP were inhibited” value was “not”.

For `Nc1ncnc2c1ncn2[C@@H]1O[C@H](CO)[C@@H](O)[C@H]1O` [adenosine], the cAMP production result in assay [1] (CCSM/PVSM of A2BR deficient (A2B-/-) mice) is on record as “failed to induce cAMP production”; in assay [1] (CCSM/PVSM of A2BR deficient (A2B-/-) mice, listed as Adenosine), “essentially no effect on cAMP levels”; in assay [1] (wild type CCSM/PVSM, agent alone) it was “induced cAMP”; in assay [1] (wild type CCSM/PVSM, agent alone, listed as Adenosine) it was “elevate cAMP levels”.
